Where a name gives a salt, the structure may show the parent alone. One block for each molecule: values may come before it.
Experiments:
mPGES-1 = molecular target: T1, mPGES-1 (Mus musculus, UniProt Q9JM51); experiment: Microsomal PGES activity: conversion of PGH2 to PGE2 by microsomal fractions of LPS-treated RAW 264.7 cells; assay type: biochemical, murine; conditions: for IC50: microsomal fraction of RAW 264.7 cells treated 24 hours with LPS 1 μg/mL, conversion of PGH2 to PGE2, read-out: IC50 (inhibition of mPGES-1 enzyme activity); for mPGES-1 activity in purified microsomes: 30 minutes
T1 construct: endogenous in cells; host or cells: RAW 264.7 cells treated 24 h with 1 ug/mL LPS; 100,000 g microsomal pellet
T1 sequence (Q9JM51 1-153): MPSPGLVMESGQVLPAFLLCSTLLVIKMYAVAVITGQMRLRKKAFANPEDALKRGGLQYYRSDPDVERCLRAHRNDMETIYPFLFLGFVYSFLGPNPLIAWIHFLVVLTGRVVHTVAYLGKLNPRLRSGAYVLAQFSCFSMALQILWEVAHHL
Protocol: FIG. 6. mPGES-1 activity was assayed as conversion of PGH2 to PGE2 by microsomal fractions of RAW 264.7 cells treated for 24 hours with LPS 1 μg/mL to increase mPGES-1 expression. The microsomal fraction was exposed to increasing concentrations of compound to be tested, or 3 μM of know mPGES-1 inhibitors MK866 or PF9184 as positive controls. PGE2 level was normalized on the vehicle treated microsomal samples (100%). (A) compound I-IVb-X; (B) compound I-IVb-AE; (C) compound I-IVb-A-HCl; (D) compound I-IVb-I.
PGES activity was measured by assessment of the conversion of PGH2 to PGE2. In brief, after 24 hours incubation with 1 μg/mL LPS the cells were harvested and lysed by sonication (three times for 10 seconds each, at 1 min intervals) in 300 μl of 1 M Tris-HCl (pH 8.0). After centrifugation of the lysate at 12,000 g for 10 min at 4° C., the supernatant was collected and further centrifuged at 100,000 g for 1 h at 4° C. The pellets (microsomal membranes) were resuspended in 100 μl of 0.1M Tris-HCl, pH 8.0, containing protease inhibitors) and subjected to measurement of microsomal PGES activity. For measurement of PGES activity, an aliquot of each sample equivalent to 50 μg of protein was incubated with 2 μg of PGH2 for 60 s at 24° C. in 0.1 ml of 1 M Tris-HCl containing 2 mM glutathione (Sigma-Aldrich) and 14 μM indomethacin, in the absence or presence of the tested compounds. The reaction was terminated by the addition of 100 mM FeCl2, and further incubated at 20-25° C. for 15 min. After centrifugation of the reaction mixture, the PGE2 concentration in the supernatant was measured with the PGE2 high sensitivity EIA kit (Enzo Life Science) according to manufacturer's instructions.
RAW 264.7 macrophage cells were treated with the inflammatory stimulus LPS to increase the expression of mPGES-1. After 24 hours incubation the microsomes were isolated and exposed to increasing concentration of compound I-IVb-X or a single concentration of previously described mPGES-1 inhibitors MK866 and PF9184 for 30 minutes. The activity of mPGES-1 was then assayed in the microsomes fraction as the conversion of PGH2 to PGE2.
Using the methods as described in Example 1, additional compounds were tested. Table 1 provides an overview of the compounds that were tested, along with corresponding IC50 values. FIGS. 6B, 6C, and 6D show corresponding inhibition curves for I-IVb-AE, I-IVb-A-HCl, and I-IVb-I, respectively.

[1] = system: RAW 264.7 murine macrophage cells; experiment: Prostaglandin levels (ELISA) in supernatant of LPS-stimulated RAW 264.7 cells; assay type: cell-based; conditions: 1 μg/mL LPS, 24 hours, increasing concentrations
Protocol: FIG. 2. (A-C) Levels of prostaglandins (PG) PGE2 (A), PGD2 (B) and 6-keto PGF1a (C) in supernatant of RAW 264.7 murine macrophage cells exposed for 24 hours to vehicle or 1 μg/mL lipopolysaccharide (LPS), normalized on vehicle. (D-F) Levels of PGE2, PGD2 and 6-keto PGF1a in supernatant of RAW 264.7 murine macrophage cells exposed for 24 hours to vehicle or 1 μg/mL LPS, alone (set as 100%) or in combination with increasing concentrations of compound I-IVb-X (a compound of general structure (I) wherein T is of general structure (IVb), in the S,R-configuration, and wherein as per compound X the following apply: L=L^19; R^1═H; R^2—R^2′=L^3; R^3═H; indicated as KH) (D), non-selective COX inhibitor indomethacin (E) or COX-2 inhibitor celecoxib (F).
RAW264.7 cells (Sigma-Aldrich, St-Louis) were maintained in DMEM (Thermo Fisher Scientific) containing 10% FBS (Greiner Bio-one), and antibiotics (100 U/ml penicillin, 100 μg/ml streptomycin) under a humidified atmosphere of 5% CO2 at 37° C. The cells were grown to 80% confluence, scraped and then cultured in either 96-well plates (2×10^4 cells/well) or six-well plates (4×10^5 cells/well) for 6-24 hours before an experiment.
(§1) The concentration of the PGE2, PGD2 and 6-keto-PGF1α in culture medium was determined by Enzyme-Linked Immuno Sorbent Assay (ELISA) using, respectively, the PGE2 high sensitivity EIA kit (Enzo Life Science), the Prostaglandin D2-MOX ELISA Kit (Cayman Chemicals) and the 6-keto Prostaglandin F1α ELISA Kit (Cayman Chemicals), according to the manufacturer's instructions. Samples (100 μl) of culture medium from each well were harvested and diluted with the assay buffer.
RAW 264.7 macrophage cells were treated with the inflammatory stimulus LPS alone or in combination with increasing concentrations of compound I-IVb-X (a compound of general structure (I) wherein T is of general structure (IVb), in the S,R-configuration, and wherein as per compound X the following apply: L=L^19; R^1═H; R^2—R^2′=L^3; R^3═H), the NSAID indomethacin or the Coxib Celecoxib. After 24 hours incubation the levels of PGE2, PGD2 and 6-keto PGF1a were quantified in the cell supernatant by ELISA. […] Similar results were obtained with compound I-IVb-X in human primary skin fibroblasts.

[2] = system: human primary skin fibroblasts; experiment: Prostaglandin levels (ELISA) in supernatant of LPS- or IL-1β-stimulated human primary skin fibroblasts; assay type: cell-based; conditions: 24 hours
Protocol: FIG. 3. (A-B) Levels of PGE2 (A) and PGD2 (B) in supernatant of human primary skin fibroblasts exposed for 24 hours to vehicle, 1 μg/mL LPS or 1 μg/mL Interleukin-1β (IL-1β), normalized on vehicle. (C-D) Levels of PGE2 and PGD2 in supernatant of human primary skin fibroblasts exposed for 24 hours to 1 μg/mL LPS (C) or 1 μg/mL IL-1β (D) alone (set as 100%) or in combination with increasing concentrations of compound I-IVb-X (indicated as KH).
The cells were maintained in M199, HEPES (Thermo Fischer Scientific) containing 10% FBS (#758093, Greiner Bio-one), 100 IU/ml penicillin and 100 μg/ml streptomycin (#30-002-CI, Corning) under a humidified atmosphere of 5% CO2 at 37° C. The cells were passaged by trypsinization every 4-5 days until they reached the passage number 20, and then discarded. The cells were grown to 80% confluence, trypsinized and then cultured in 96-well plates (4×10^3 cells/well) 24 hours before an experiment.
as §1, with “Samples (100 μl) of culture medium from each well were harvested and diluted with the assay buffer.” left out

[3] = single concentration (3 μM), positive controls

IC50 (mPGES-1): 1.02 µM
SMILES: CC1=C(C)C(=O)C(CC[C@](C)(O)C(=O)N2CCNCC2)=C(C)C1=O [I-IVb-A-HCl]

IC50 (mPGES-1): 0.238 µM
SMILES: CC1=C(C)C(=O)C(CC[C@](C)(O)C(=O)N2CCC(NC(=O)[C@H](C)N)CC2)=C(C)C1=O [I-IVb-AB-HCl]

IC50 (mPGES-1): 0.018 µM
SMILES: CC1=C(C)C(=O)C(CC[C@](C)(O)C(=O)N[C@H]2CC[C@H](N)CC2)=C(C)C1=O [I-IVb-AE]

SMILES: CC1=C(C)C(=O)C(CC[C@](C)(O)C(=O)N[C@H]2CN3CCC2CC3)=C(C)C1=O [I-IVb-AI-HCl]
IC50 (mPGES-1): 0.726 µM

IC50 (mPGES-1): 1.05 µM
SMILES: CC1=C(C)C(=O)C(CC[C@](C)(O)C(=O)Nc2ccc(CN)cc2)=C(C)C1=O [I-IVb-AJ-HCl]

IC50 (mPGES-1): 1.12 µM
SMILES: CC1=C(C)C(=O)C(CCC(C)(O)C(=O)NCCN(C)C)=C(C)C1=O (stereo not shown) [I-IVb-I]

IC50 (mPGES-1): 0.0104 µM
SMILES: CC1=C(C)C(=O)C(CCC(C)(O)C(=O)N[C@@H](CCCN)C(=O)O)=C(C)C1=O (stereo partly shown) [I-IVb-N]

mPGES-1 activity in purified microsomes (mPGES-1; increasing concentration of compound): decreased | IC50 (mPGES-1): 0.458 µM
SMILES: CC1=C(C)C(=O)C(CC[C@](C)(O)C(=O)N[C@@H]2CCCNC2)=C(C)C1=O [I-IVb-X]
level of 6-keto PGF1a in cell supernatant [1]: no effect | level of PGD2 in cell supernatant [1]: no effect | level of PGE2 in cell supernatant [1]: dose-dependently reduce | level of PGE2 in supernatant ([2]; 1 μg/mL IL-1β): efficiently reduce | level of PGE2 in supernatant ([2]; 1 μg/mL LPS): efficiently reduce

mPGES-1 activity in purified microsomes (mPGES-1; [3]): decreased
SMILES: CC(C)c1ccc2c(c1)c(SC(C)(C)C)c(CC(C)(C)C(=O)O)n2Cc1ccc(Cl)cc1 [MK866, reference compound]

mPGES-1 activity in purified microsomes (mPGES-1; [3]): decreased
SMILES: O=C(Nc1ccc(-c2ccc(Cl)c(Cl)c2)cc1)C1=C(O)c2ccccc2S(=O)(=O)N1 [PF9184, reference compound]

SMILES: COc1ccc2c(c1)c(CC(=O)O)c(C)n2C(=O)c1ccc(Cl)cc1 [indomethacin, reference compound]
level of 6-keto PGF1a in cell supernatant [1]: dose-dependently reduced | level of PGD2 in cell supernatant [1]: dose-dependently reduced | level of PGE2 in cell supernatant [1]: dose-dependently reduced
